According to paper PMC8129133, “Polymer-free corticosteroid dimer implants for controlled and sustained drug delivery” (Nature Communications, 2021):
Where “and” joins values, the source holds several entries; their conditions need not be identical. Identical values can stand only once.

Test: In vitro release
Assay type: physicochemical
Details: for Cumulative Dex (%): Fig 4b pellet 1x1 mm; for 23G x 6 mm - Cumulative Dex Release, % / 30G x 6 mm - Cumulative Dex Release, % / 23G x 6 mm - Cumulative Dex Release / 30G x 6 mm - Cumulative Dex Release: Fig 4e; for 23G x 6 mm - Cumulative Dex Release, % / 30G x 6 mm - Cumulative Dex Release, %: AVG; for 23G x 6 mm - Cumulative Dex Release / 30G x 6 mm - Cumulative Dex Release: single samples and AVG
Protocol: Pellets for release studies. Crystalline drug dimers were weighed on a stainless steel coupon. In the case of blends with a second drug, the dimer and drug were mixed at the desired mass ratio with mortar and pestle prior to weighing. Samples were transferred to a heat press (Carver Laboratory Press). A PTFE mold containing an array of 1 mm diameter holes of 1 mm depth was placed on top of the melt, and pressure was applied for 2 min. Molded pellets were cooled to room temperature and punched out of the mold, yielding a pellet of 1 mm height × 1 mm diameter.
Release studies were carried out using different media, including PBS (pH 7.4, Gibco), 100% FBS (Sigma, F1051), 1% FBS in PBS pH 7.4, and 3.6% BSA (Sigma, A7906) in PBS (pH 7.4, Gibco). […] Samples were incubated in release medium at 37 °C under constant agitation on an orbital shaker at 115 rpm (VWR). At designated timepoints, sampling was performed by complete removal of medium and replenishment with fresh buffer. Sampling timepoints included 24 h and then every 3–4 days thereafter. For PBS release conditions, samples were analyzed directly. For samples with protein (100% FBS, 1% FBS, 3.6% BSA), protein was precipitated by addition of acetonitrile. Samples were vortexed and centrifuged to separate extracted drug from precipitated protein. The supernatant was then analyzed for drug concentration by HPLC.

Structure (SMILES): C[C@@H]1C[C@H]2[C@@H]3CCC4=CC(=O)C=C[C@]4(C)[C@@]3(F)[C@@H](O)C[C@]2(C)[C@@]1(O)C(=O)COC(=O)OCCOCCOCCOC(=O)OCC(=O)[C@@]1(O)[C@H](C)C[C@H]2[C@@H]3CCC4=CC(=O)C=C[C@]4(C)[C@@]3(F)[C@@H](O)C[C@@]21C [Dex-TEG-Dex]
- Cumulative Dex (%) (1% FBS, Day 1): 0.0326% and 0.0366% and 0.0447%
- Cumulative Dex (%) (1% FBS, Day 3): 0.11% and 0.12% and 0.13%
- Cumulative Dex (%) (1% FBS, Day 7): 0.35% and 0.44% and 0.38%
- Cumulative Dex (%) (1% FBS, Day 10): 0.52% and 0.59% and 0.51%
- Cumulative Dex (%) (1% FBS, Day 14): 0.81% and 0.96% and 0.85%
- Cumulative Dex (%) (1% FBS, Day 17): 0.94% and 1.07% and 1.04%
- Cumulative Dex (%) (1% FBS, Day 21): 1.22% and 1.44% and 1.42%
- Cumulative Dex (%) (1% FBS, Day 24): 1.37% and 1.56% and 1.61%
- Cumulative Dex (%) (1% FBS, Day 28): 1.58% and 1.84% and 1.93%
- Cumulative Dex (%) (1% FBS, Day 31): 1.78% and 2.05% and 2.12%
- Cumulative Dex (%) (1% FBS, Day 35): 1.95% and 2.46% and 2.48%
- Cumulative Dex (%) (100% FBS, Day 1): 1.59% and 1.88% and 1.25%
- Cumulative Dex (%) (100% FBS, Day 3): 6.12% and 9.16% and 4.64%
- Cumulative Dex (%) (100% FBS, Day 7): 11.07% and 13.41% and 9.59%
- Cumulative Dex (%) (100% FBS, Day 10): 15.60% and 21.36% and 19.29%
- Cumulative Dex (%) (100% FBS, Day 14): 21.12% and 26.30% and 23.66%
- Cumulative Dex (%) (100% FBS, Day 17): 25.65% and 33.52% and 29.96%
- Cumulative Dex (%) (100% FBS, Day 21): 29.80% and 39.06% and 33.88%
- Cumulative Dex (%) (100% FBS, Day 24): 34.99% and 43.22% and 37.26%
- Cumulative Dex (%) (100% FBS, Day 28): 41.40% and 49.76% and 42.62%
- Cumulative Dex (%) (100% FBS, Day 31): 49.48% and 56.79% and 48.41%
- Cumulative Dex (%) (100% FBS, Day 35): 52.66% and 62.41% and 52.08%
- Cumulative Dex (%) (PBS, Day 1): 0.0268% and 0.0111% and 0.0155%
- Cumulative Dex (%) (PBS, Day 7): 0.06% and 0.0341% and 0.04%
- Cumulative Dex (%) (PBS, Day 10): 0.075% and 0.04% and 0.05%
- Cumulative Dex (%) (PBS, Day 14): 0.09% and 0.05% and 0.06%
- Cumulative Dex (%) (PBS, Day 17): 0.10% and 0.0566% and 0.07%
- Cumulative Dex (%) (PBS, Day 21): 0.12% and 0.07% and 0.09%
- Cumulative Dex (%) (PBS, Day 24): 0.13% and 0.08% and 0.10%
- Cumulative Dex (%) (PBS, Day 28): 0.15% and 0.09% and 0.11%
- Cumulative Dex (%) (PBS, Day 31): 0.16% and 0.11% and 0.12%
- Cumulative Dex (%) (PBS, Day 35): 0.17% and 0.12% and 0.13%
- 23G x 6 mm - Cumulative Dex Release, % (Day 3): 1.00%
- 30G x 6 mm - Cumulative Dex Release, % (Day 3): 4.68%
- 23G x 6 mm - Cumulative Dex Release (Day 3): 3729.09 ng and 2929.83 ng and 3290.92 ng and 3423.46 ng and 3390.39 ng and 4152.03 ng
- 30G x 6 mm - Cumulative Dex Release (Day 3): 3437.65 ng and 3035.80 ng and 2955.67 ng and 2307.19 ng and 3016.47 ng
- 23G x 6 mm - Cumulative Dex Release (Day 3, mean): 3485.95 ng
- 30G x 6 mm - Cumulative Dex Release (Day 3, mean): 2950.56 ng
- 23G x 6 mm - Cumulative Dex Release, % (Day 8): 1.83%
- 30G x 6 mm - Cumulative Dex Release, % (Day 8): 10.16%
- 23G x 6 mm - Cumulative Dex Release (Day 8): 7366.47 ng and 5713.70 ng and 5752.02 ng and 6286.74 ng and 6353.56 ng and 6670.93 ng
- 30G x 6 mm - Cumulative Dex Release (Day 8): 7053.30 ng and 6157.33 ng and 6454.99 ng and 5803.26 ng and 6543.46 ng
- 23G x 6 mm - Cumulative Dex Release (Day 8, mean): 6357.24 ng
- 30G x 6 mm - Cumulative Dex Release (Day 8, mean): 6402.47 ng
- 23G x 6 mm - Cumulative Dex Release, % (Day 10): 2.30%
- 30G x 6 mm - Cumulative Dex Release, % (Day 10): 11.65%
- 23G x 6 mm - Cumulative Dex Release (Day 10): 9158.12 ng and 7456.22 ng and 6722.99 ng and 8377.04 ng and 7947.05 ng and 8287.22 ng
- 30G x 6 mm - Cumulative Dex Release (Day 10): 7909.95 ng and 7094.85 ng and 7391.21 ng and 6693.85 ng and 7620.80 ng
- 23G x 6 mm - Cumulative Dex Release (Day 10, mean): 7991.44 ng
- 30G x 6 mm - Cumulative Dex Release (Day 10, mean): 7342.13 ng
- 23G x 6 mm - Cumulative Dex Release, % (Day 14): 3.12%
- 30G x 6 mm - Cumulative Dex Release, % (Day 14): 14.82%
- 23G x 6 mm - Cumulative Dex Release (Day 14): 11851.57 ng and 10258.34 ng and 8632.68 ng and 12053.80 ng and 11294.23 ng and 11036.15 ng
- 30G x 6 mm - Cumulative Dex Release (Day 14): 9732.58 ng and 9343.08 ng and 9295.87 ng and 8576.11 ng and 9731.17 ng
- 23G x 6 mm - Cumulative Dex Release (Day 14, mean): 10854.46 ng
- 30G x 6 mm - Cumulative Dex Release (Day 14, mean): 9335.76 ng
- 23G x 6 mm - Cumulative Dex Release, % (Day 17): 3.78%
- 30G x 6 mm - Cumulative Dex Release, % (Day 17): 17.41%
- 23G x 6 mm - Cumulative Dex Release (Day 17): 14384.84 ng and 12536.91 ng and 10299.95 ng and 14655.10 ng and 13823.20 ng and 13226.26 ng
- 30G x 6 mm - Cumulative Dex Release (Day 17): 11350.14 ng and 11189.72 ng and 10651.54 ng and 10149.26 ng and 11503.70 ng
- 23G x 6 mm - Cumulative Dex Release (Day 17, mean): 13154.38 ng
- 30G x 6 mm - Cumulative Dex Release (Day 17, mean): 10968.87 ng
- 23G x 6 mm - Cumulative Dex Release, % (Day 21): 4.61%
- 30G x 6 mm - Cumulative Dex Release, % (Day 21): 21.03%
- 23G x 6 mm - Cumulative Dex Release (Day 21): 17889.27 ng and 15640.68 ng and 12427.10 ng and 17536.82 ng and 17079.10 ng and 15733.26 ng
- 30G x 6 mm - Cumulative Dex Release (Day 21): 13690.06 ng and 13583.23 ng and 12649.08 ng and 12021.08 ng and 14305.00 ng
- 23G x 6 mm - Cumulative Dex Release (Day 21, mean): 16051.04 ng
- 30G x 6 mm - Cumulative Dex Release (Day 21, mean): 13249.69 ng
- 23G x 6 mm - Cumulative Dex Release, % (Day 24): 5.14%
- 30G x 6 mm - Cumulative Dex Release, % (Day 24): 23.23%
- 23G x 6 mm - Cumulative Dex Release (Day 24): 20230.97 ng and 17190.29 ng and 13784.68 ng and 19329.36 ng and 19335.19 ng and 17491.78 ng
- 30G x 6 mm - Cumulative Dex Release (Day 24): 15132.41 ng and 14970.59 ng and 13925.27 ng and 13373.61 ng and 15759.23 ng
- 23G x 6 mm - Cumulative Dex Release (Day 24, mean): 17893.71 ng
